Experimental data taken from EP0748793A1, “KETOPANTHENOL WITH ACETYLATING PROPERTIES” (TOVARISCHESTVO S OGRANICHENNOI OTVETSTVENNOSTJU " PANT", priority 1994, dated 1995).
Entries after “also recorded” stand apart in the source; their conditions may differ.

Legend:
[1] = system: acetylation of aromatic amines (N-acetylation); assay: Acetylating properties of the organism: acetylation of sodium sulfacyl, arylamines determined in urine; type: in vivo, white rats; settings: for % of excretion from the dose, In acetylated form / % of excretion from the dose, In free form / Acetylating properties of the organism: Na sulfacyl acetylating in the organism of rats; for Concentration in urine, In acetylated form / Concentration in urine, In free form: Na sulfacyl in rat urine; for Na sulfacyl excretion, Sulfacyl isolation M ± m, In acetylated form / Na sulfacyl excretion, Sulfacyl isolation M ± m, In free form / Na sulfacyl excretion, Sulfacyl isolation M ± m, Total / Na sulfacyl excretion, Excretion % from the dose: rats; for Na sulfacyl excretion, Sulfacyl isolation M ± m, In acetylated form / Na sulfacyl excretion, Sulfacyl isolation M ± m, In free form / Na sulfacyl excretion, Sulfacyl isolation M ± m, Total: agent i.p. for 4 days, then Na sulfacyl 20 mg/kg i.p., urine; for Na sulfacyl excretion, Excretion % from the dose: total sulfacyl in urine relative to the sulfacyl dose
Description: The level of the organism supply with a vitamin is determined by the study of the reaction of acetylation of exogenous aromatic amines. The total acetylating properties of the organism were assessed by the method of quantitative determination of the content of arylamines in the examined substrate (urine).
Sodium sulfacyl was chosen as the substance for acetylation.
The influence of 4-days of injections of ketopanthenol on the acetylating properties of white rats was examined during the experiments.
The experiments were carried out using mongrel pubescent male rats. 14 animals were included in each group. The examined agent was injected intraperitoneally in a dose of 29 mg/kg. On the 4th day 4 hours after the last injection of the examined agent the sodium sulfacyl solution in a dose of 20 mg/kg was injected intraperitoneally. All the rats were separated into exchangeable cages for urine gathering. The resulting data were compared with the control groups (group I - only received sodium sulfacyl in a dose of 20 mg/kg, and group II received calcium D-pantothenate).
The average weight of the animals in the group fluctuated within 154.7 ± 10.8 g, the absolute dose of sodium sulfacyl was 3.09 ± 0.14 mg.

in vivo = settings: mouse, po
Description: (§1) To determine acute toxicity of ketopanthenol, non-linear white mice of both sexes with the average mass of 19 ± 3 g were used. There were 72 mice in the experiment, the animals were divided into 12 groups, 6 animals in each group. The mice of the first 6 groups received ketopanthenol in 0.2 ml of distilled water once internally in doses: 20.0, 21.0, 22.0, 23.0, 24.0 and 25.0 g/kg.
(§2) The 12 group was the control one, the mice of this group received once internally only 0.2 ml of distilled water.
(§3) The mice were under observation for 14 days.
(§4) The LD50 calculations were carried out according to Kerber

non-linear white rats = assay: Subchronic toxicity and local irritating effect, 2 months daily dosing, mass growth; type: in vivo
Description: The study of subchronic toxicity and the local irritating effect of ketopanthenol.
In the experiment carried out for 2 months, non-linear white rats of both sexes with the average initial weight of 75 ± 3.3 g were used. The animals were divided into 7 groups. The first three groups received daily, during the whole experimental period, ketopanthenol in 0.2 ml of distilled water in doses of 13.2 mg/kg (which corresponds to the therapeutic dose of vitamin B3), 132.0 and 264 mg/kg (in doses 10 and 20 times larger than the therapeutic dose). […] The animals of the seventh group were used as control, receiving internally 0.2 ml of distilled water daily.
During the whole experiment the animals were weighed once a week and the observation on their development, state and behavior was carried out.

non-linear white mice = assay: in vivo; settings: mouse
Description: as §1, §2, §3, §4

[2] = system: conjunctive bag of the eye; assay: Eye irritation, aqueous solution dripped into the conjunctive bag; type: in vivo; settings: eye of 5 rabbits, three days
Text: The aqueous solution of ketopanthenol was dripped into the conjunctive bag of the eye of 5 rabbits weighing 2.5 ± 0.3 kg for three days.

Solubility in solvents = type: physicochemical
[3] = dose 10 times larger than the therapeutic dose (132.0 mg/kg), 2 months
[4] = dose 20 times larger than the therapeutic dose (264 mg/kg), 2 months
[5] = rats, 13.2 mg/kg daily, 2 months
[6] = rats, 132.0 mg/kg daily, 2 months
[7] = rats, 264.0 mg/kg daily, 2 months
[8] = therapeutic dose (13.2 mg/kg), 2 months

| SMILES | % of excretion from the dose, In acetylated form [1] [%] | % of excretion from the dose, In free form [1] [%] | Acetylating properties of the organism [1] | Concentration in urine, In acetylated form [1] [mg/mL] | Concentration in urine, In free form [1] [mg/mL] | Na sulfacyl excretion, Sulfacyl isolation M ± m, In acetylated form [1] | Na sulfacyl excretion, Sulfacyl isolation M ± m, In free form [1] | Na sulfacyl excretion, Sulfacyl isolation M ± m, Total [1] | Na sulfacyl excretion, Excretion % from the dose [1] [%] | MTD at 336 h (in vivo) [mg/kg] | growth of the mass of the rats, higher in comparison with the control animals (non-linear white rats; [3]) [%] | growth of the mass of the rats, higher in comparison with the control animals (non-linear white rats; [4]) [%] | Mass growth during the experiment (non-linear white rats; [5]) [g] | Mass growth during the experiment, % to the control (non-linear white rats; [5]) [%] | Mass, Final (non-linear white rats; [5]) | Mass growth during the experiment (non-linear white rats; [6]) [g] | Mass growth during the experiment, % to the control (non-linear white rats; [6]) [%] | Mass, Final (non-linear white rats; [6]) | Mass growth during the experiment (non-linear white rats; [7]) [g] | Mass growth during the experiment, % to the control (non-linear white rats; [7]) [%] | further results |
| --- | --- | --- | --- | --- | --- | --- | --- | --- | --- | --- | --- | --- | --- | --- | --- | --- | --- | --- | --- | --- | --- |
| CC(C)(CO)[C@@H](O)C(=O)NCCC(=O)O [D (+) pantothenate Ca, calcium D-pantothenate, reference compound] | 22.3 ± 1.8 | 70.7 ± 6.0 | 24.0 | 0.172 | 0.54 | 0.67 ± 0.04 | 2.12 ± 0.09 | 2.79 ± 0.19 | 93.0 |  |  |  |  |  |  |  |  |  |  |  |  |
| CC(C)(CO)[C@@H](O)C(=O)NCCCO [D-panthenol, D-pantothenyl alcohol, reference compound] |  |  |  |  |  |  |  |  |  | 21000 | 9.3 | 5.2 | 129.5 ± 8.5 | 108.0 | 202.0 ± 16.4 | 131.1 ± 8.5 | 109.3 | 205.1 ± 16.0 | 126.1 ± 9.3 | 105.2 | Mass, Final (non-linear white rats; [7]): 197.3 ± 18.8; growth of the mass of the rats, higher in comparison with the control animals (non-linear white rats; [8]): 8.0% |
| CC(C)(CO)C(=O)C(=O)NCCCO [ketopanthenol] | 32.0 ± 2.3 | 62.1 ± 2.9 | 34.0 | 0.36 | 0.71 | 0.99 ± 0.4 | 1.92 ± 0.09 | 2.91 ± 0.21 | 94.2 | 21000 | 12.0 | 6.5 | 132.7 ± 10.7 | 103.72 | 210.7 ± 18.1 | 134.3 ± 8.4 | 112.0 | 209.5 ± 22.5 | 127.7 ± 11.0 | 106.5 | excretion of the sulfacyl in its free form, lower ([1]; compared with the series I (control)): 20%; increase of the acetylating properties of the organism ([1]; in comparison with calcium D-pantothenate): 1.5 times; increase of the excretion of the acetylated product ([1]; in comparison with group II (calcium D-pantothenate)): 1.7 times; increase of the acetylating properties of the organism ([1]; in comparison with the control): 3.6 times; increase of the excretion of the acetylated product ([1]; in comparison with the control group): 4 times; dose from which mice lost mobility, had quickened breathing, inertia, narrowed eye slots (non-linear white mice): ≥ 22000 mg/kg; LD100 (non-linear white mice; 20160 min): 25000 mg/kg; LD50 at 336 h (in vivo): 23500 mg/kg; irritating effect [2]: No irritating effect was observed; solubility (Solubility in solvents; in ether): poor solubility; solubility (Solubility in solvents; in water, alcohols, acetone, chloroform): good solubility; Mass, Final (non-linear white rats; [7]): 200.1 ± 12.3; changes in development, state and behavior of the animals (non-linear white rats; rats, 2 months, in comparison with the control rats): No changes; toxic influence on the animals' organism (non-linear white rats; rats, prolonged period (2 months)): no toxic influence; also recorded: no toxic effect; local irritating effect (non-linear white rats; rats, visual examination of the internal organs after slaughtering): no local irritating effect was observed; growth of the mass of the rats, higher in comparison with the control animals (non-linear white rats; [8]): 10.7% |
